Each structure is given as a SMILES string.

The experiment has as its target T1, P2X7 (UniProt Q99572).
T1 sequence (Q99572 1-595): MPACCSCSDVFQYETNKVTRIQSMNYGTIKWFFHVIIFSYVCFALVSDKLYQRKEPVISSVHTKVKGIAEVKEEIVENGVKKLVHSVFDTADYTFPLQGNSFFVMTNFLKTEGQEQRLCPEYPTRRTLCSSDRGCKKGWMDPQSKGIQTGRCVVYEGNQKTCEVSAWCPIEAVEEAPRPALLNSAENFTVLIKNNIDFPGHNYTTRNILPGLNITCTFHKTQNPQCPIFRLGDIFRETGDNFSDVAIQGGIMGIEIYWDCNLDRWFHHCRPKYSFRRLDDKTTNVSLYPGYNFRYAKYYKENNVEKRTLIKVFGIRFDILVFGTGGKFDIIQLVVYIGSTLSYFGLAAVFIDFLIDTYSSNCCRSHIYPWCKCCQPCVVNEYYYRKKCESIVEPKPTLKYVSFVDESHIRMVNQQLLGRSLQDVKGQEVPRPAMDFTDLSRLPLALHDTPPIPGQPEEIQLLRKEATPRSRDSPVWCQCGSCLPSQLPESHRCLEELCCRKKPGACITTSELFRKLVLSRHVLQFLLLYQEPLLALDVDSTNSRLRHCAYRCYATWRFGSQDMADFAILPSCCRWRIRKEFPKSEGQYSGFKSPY
Nature of the experiment: pIC50 values for P2X7 (Table 1). The class given is cell-based. The protocol:
Intracellular Calcium Flux (FLIPR) Assay
Compound and Reagent Preparation
Stock solutions of compounds were prepared from powders as a 10 mM DMSO stock solution. These solutions were stored at RT during the two week period of these experiments to prevent freeze-thaw of the DMSO stocks. The DMSO stocks were added to the appropriate assay buffer at a concentration of 10 μM, and then diluted serially to the final concentrations that were tested. […] The aqueous solutions of compounds as well as ATP (Sigma A7699) and BzATP (Sigma B6396) were prepared fresh for each day of experiment.
1321N1 cells stably expressing the full length human P2X7 gene (1321N1-hP2X7) and HEK293 cells stably expressing the full length rat P2X7 gene (HEK293-rP2X7) were obtained from the Roche Cell Culture Facility. 1321N1-hP2X7 cells were grown in Dulbecco's Modified Eagle's Medium (DMEM) high glucose supplemented with 10% FBS and 250 μg/mL G418. HEK293-rP2X7 cells were grown in DMEM/F-12 supplemented with 10% FBS, 1 mM CaCl2, 2 mM MgCl2, 2 mM L-Glutamine and 500 μg/ml G418. Cells were split such that they never became >70% confluent.
Intracellular Calcium Flux (FLIPR)
On the day prior to the experiment, 1321N1-hP2X7 or HEK293-rP2X7 cells were released into suspension with calcium-free PBS+Versene and washed by centrifugation with calcium-free PBS to remove the Versene.
On the day of the experiment, plates were washed with FLIPR buffer (calcium- and magnesium-free Hank's Balanced Salt Solution (HBSS) supplemented with 10 mM Hepes, 2.5 mM probenecid and 2 mM calcium chloride) using a BIO-TEK 96 channel plate washer and incubated with […] fluo-3 dye at 37° C. for one hr. The dye was then removed by plate washing and the cells were allowed to equilibrate for 20 min at room temperature with antagonist or vehicle (FLIPR buffer). Agonist (100 μM BzATP final concentration for hP2X7; 5 μM BzATP final concentration or rP2X7) was added online with the FLIPR and fluorescence measurements made at 1 sec intervals for 60 sec followed by 3 sec intervals for a further 4 min (5 min total). A final addition of 5 μM ionomycin was made and the maximal BzATP-evoked fluorescence normalized to the maximal ionomycin-evoked fluorescence.
Turning to `COc1cc(NC(=O)N2C=CC(=O)C[C@H]2c2ccc(F)cc2)c(F)cc1C` [Compound 49, (S)-2-(4-Fluoro-phenyl)-4-oxo-3,4-dihydro-2H-pyridine-1-carboxylic acid (2-fluoro-5-methoxy-4-methyl-phenyl)-amide], the negative-log IC50 (pIC50) amounted to 7.21.
The same measure for `O=C1C=CN(C(=O)Nc2cc(OCCO)c(Cl)cc2Br)[C@H](c2cccc(F)c2)C1` [Compound 50, (S)-2-(3-Fluoro-phenyl)-4-oxo-3,4-dihydro-2H-pyridine-1-carboxylic acid [2-bromo-4-chloro-5-(2-hydroxy-ethoxy)-phenyl]-amide]: 7.407.
The same measure for `CC(=O)c1cc(NC(=O)N2C=CC(=O)C[C@H]2c2ccc(F)cc2)c(Br)cc1Cl` [Compound 51, (S)-2-(4-Fluoro-phenyl)-4-oxo-3,4-dihydro-2H-pyridine-1-carboxylic acid (5-acetyl-2-bromo-4-chloro-phenyl)-amide]: 6.857.
In the case of `Cn1ccc2ccc(NC(=O)N3C=CC(=O)CC3c3ccc(F)cc3)cc21` (stereo not shown) [Compound 52, 2-(4-Fluoro-phenyl)-4-oxo-3,4-dihydro-2H-pyridine-1-carboxylic acid (1-methyl-1H-indol-6-yl)-amide], the pIC50 was determined as 7.065.
The compound `COc1ccc(C)c(NC(=O)N2C=CC(=O)C[C@H]2c2cccc(F)c2)c1` [Compound 53, (S)-2-(3-Fluoro-phenyl)-4-oxo-3,4-dihydro-2H-pyridine-1-carboxylic acid (5-methoxy-2-methyl-phenyl)-amide] registered a pIC50 of 8.01.
Turning to `CS(=O)(=O)CCCOc1cc(NC(=O)N2C=CC(=O)C[C@H]2c2ccc(F)cc2)c(Br)cc1Cl` [Compound 54, (S)-2-(4-Fluoro-phenyl)-4-oxo-3,4-dihydro-2H-pyridine-1-carboxylic acid [2-bromo-4-chloro-5-(3-methanesulfonyl-propoxy)-phenyl]-amide], the negative logarithm of the IC50 (pIC50) amounted to 6.38.
The figure for `COc1cc(NC(=O)N2C=CC(=O)C[C@H]2c2ccc(F)cc2)c(Br)cc1C(=O)OC(C)(C)C` [Compound 55, 5-Bromo-4-{[(S)-2-(4-fluoro-phenyl)-4-oxo-3,4-dihydro-2H-pyridine-1-carbonyl]-amino}-2-methoxy-benzoic acid tert-butyl ester] is 5.845; for `COc1ccc(S(C)(=O)=O)cc1NC(=O)N1C=CC(=O)CC1c1ccc(F)cc1` (stereo not shown) [Compound 56, 2-(4-Fluoro-phenyl)-4-oxo-3,4-dihydro-2H-pyridine-1-carboxylic acid (5-methanesulfonyl-2-methoxy-phenyl)-amide] it is 5.11.
The figure for `CC(O)c1cc(NC(=O)N2C=CC(=O)C[C@H]2c2ccc(F)cc2)c(Br)cc1Cl` (stereo partly drawn) [Compound 57, (S)-2-(4-Fluoro-phenyl)-4-oxo-3,4-dihydro-2H-pyridine-1-carboxylic acid [2-bromo-4-chloro-5-(1-hydroxy-ethyl)-phenyl]-amide] is 7.42; for `Cc1cc(F)c(NC(=O)N2C=CC(=O)C[C@H]2c2cccc(F)c2)cc1OCCO` [Compound 58, (S)-2-(3-Fluoro-phenyl)-4-oxo-3,4-dihydro-2H-pyridine-1-carboxylic acid [2-fluoro-5-(2-hydroxy-ethoxy)-4-methyl-phenyl]-amide] it is 6.43.
The figure for `Cc1cc(F)c(NC(=O)N2C=CC(=O)C[C@H]2c2ccc(F)cc2)cc1OCCO` [Compound 59, (S)-2-(4-Fluoro-phenyl)-4-oxo-3,4-dihydro-2H-pyridine-1-carboxylic acid [2-fluoro-5-(2-hydroxy-ethoxy)-4-methyl-phenyl]-amide] is 6.62; for `COc1cc(NC(=O)N2C=CC(=O)C[C@H]2c2ccc(F)cc2)c(Br)cc1C(N)=O` [Compound 60, (S)-2-(4-Fluoro-phenyl)-4-oxo-3,4-dihydro-2H-pyridine-1-carboxylic acid (2-bromo-4-carbamoyl-5-methoxy-phenyl)-amide] it is 5.78; for `O=C1C=CN(C(=O)Nc2cc3c(cc2Br)OC(F)(F)O3)[C@H](c2ccc(F)cc2)C1` [Compound 61, (S)-2-(4-Fluoro-phenyl)-4-oxo-3,4-dihydro-2H-pyridine-1-carboxylic acid (6-bromo-2,2-difluoro-benzo[1,3]dioxol-5-yl)-amide] it is 6.365.
As for `O=C1C=CN(C(=O)Nc2c(F)cccc2F)C(c2ccc(F)cc2)C1` (stereo not shown) [Compound 62, 2-(4-Fluoro-phenyl)-4-oxo-3,4-dihydro-2H-pyridine-1-carboxylic acid (2,6-difluoro-phenyl)-amide], the negative-log IC50 (pIC50) amounted to 5.51.
The same measure for `COc1cc(NC(=O)N2C=CC(=O)C[C@H]2c2ccc(F)cc2)c(Br)cc1C#N` [Compound 63, (S)-2-(4-Fluoro-phenyl)-4-oxo-3,4-dihydro-2H-pyridine-1-carboxylic acid (2-bromo-4-cyano-5-methoxy-phenyl)-amide]: 6.74; for `O=C1C=CN(C(=O)NC23CC4CC(CC(C4)C2)C3)C(c2ccc(F)cc2)C1` (stereo not shown) [Compound 64, 2-(4-Fluoro-phenyl)-4-oxo-3,4-dihydro-2H-pyridine-1-carboxylic acid adamantan-1-ylamide]: 5.98.
The same measure for `COc1ccc(OC)c(NC(=O)N2C=CC(=O)CC2c2ccc(F)cc2)c1` (stereo not shown) [Compound 65, 2-(4-Fluoro-phenyl)-4-oxo-3,4-dihydro-2H-pyridine-1-carboxylic acid (2,5-dimethoxy-phenyl)-amide]: 6.23.
The compound `COC(=O)c1cccc(NC(=O)N2C=CC(=O)CC2c2ccc(F)cc2)c1C` (stereo not shown) [Compound 66, 3-{[2-(4-Fluoro-phenyl)-4-oxo-3,4-dihydro-2H-pyridine-1-carbonyl]-amino}-2-methyl benzoic acid methyl ester] returned a pIC50 of 6.8.
The figure for `COc1cccc(NC(=O)N2C=CC(=O)CC2c2ccc(F)cc2)c1` (stereo not shown) [Compound 67, 2-(4-Fluoro-phenyl)-4-oxo-3,4-dihydro-2H-pyridine-1-carboxylic acid (3-methoxy-phenyl)-amide] is 6.31; for `COc1ccc(NC(=O)N2C=CC(=O)CC2c2ccc(F)cc2)c(OC)c1` (stereo not shown) [Compound 69, 2-(4-Fluoro-phenyl)-4-oxo-3,4-dihydro-2H-pyridine-1-carboxylic acid (2,4-dimethoxy-phenyl)-amide] it is 6.07.
The figure for `COc1cc(NC(=O)N2C=CC(=O)C[C@H]2c2cccc(F)c2)ccc1C` [Compound 70, (S)-2-(3-Fluoro-phenyl)-4-oxo-3,4-dihydro-2H-pyridine-1-carboxylic acid (3-methoxy-4-methyl-phenyl)-amide] is 6.84; for `COc1cc(NC(=O)N2C=CC(=O)C[C@H]2c2ccc(F)cc2)ccc1Cl` [Compound 71, (S)-2-(4-Fluoro-phenyl)-4-oxo-3,4-dihydro-2H-pyridine-1-carboxylic acid (4-chloro-3-methoxy-phenyl)-amide] it is 6.245.
The same measure for `COc1cc(NC(=O)N2C=CC(=O)C[C@H]2c2cccc(F)c2)ccc1Cl` [Compound 72, (S)-2-(3-Fluoro-phenyl)-4-oxo-3,4-dihydro-2H-pyridine-1-carboxylic acid (4-chloro-3-methoxy-phenyl)-amide]: 6.295; for `COc1cc(NC(=O)N2C=CC(=O)C[C@H]2c2cccc(F)c2)ccc1F` [Compound 73, (S)-2-(3-Fluoro-phenyl)-4-oxo-3,4-dihydro-2H-pyridine-1-carboxylic acid (4-fluoro-3-methoxy-phenyl)-amide]: 6.83.
`Cc1cc2ncccc2cc1NC(=O)N1C=CC(=O)C[C@H]1c1ccc(F)cc1` [Compound 74, (S)-2-(4-Fluoro-phenyl)-4-oxo-3,4-dihydro-2H-pyridine-1-carboxylic acid (7-methyl-quinolin-6-yl)-amide] had a pIC50 of 7.35.

A word on the pIC50: it is the IC50 on a negative log10 scale, so that one unit is a factor of ten. A higher pIC50 goes with a small IC50.

The record behind these values is patent US8153809B2, “Dihydropyridone ureas as P2X7 modulators” (Roche Palo Alto LLC, priority 2008, dated 2012).
